Assay results as given in patent US20180360037A1, “STEREOISOMER OF BROMADIOLONE, COMPOSITION AND RODENTICIDE BAIT COMPRISING SAME, AND METHOD FOR CONTROLLING TARGET RODENT PESTS” (priority 2015, published 2018).
Where two headings read alike, the source gives them in different places.

What was measured:
[1] = format: in vivo, rat; conditions: for concentration of each enantiomer in rat liver: mixture of diastereoisomers, about 13 mg/kg per os on D0, from D+3, FIG. 3
Procedure: Separation of the configurational stereoisomers of bromadiolone is performed by high-pressure liquid chromatography (HPLC) on a LUX® Cellulose-1 chiral column (Phenomenex, Le Pecq, France) containing a chiral stationary phase constituted of particles of cellulose tris(3,5-dimethylphenyl carbamate), said particles having a mean size of 3 μm and having a mean pore size of 1000 Å. A mixture formed from acetonitrile (A) and water comprising 0.1% by volume of formic acid (B), with an A/B volume ratio of 80/20 and with a flow rate of 0.25 mL/minute in the chromatography column, is used as mobile phase. The concentration of the composition to be analysed is 1 μg of bromadiolone per millilitre of acetonitrile and the volume injected onto the column is 1 μL. Detection is performed by tandem mass spectrometry (MS/MS) in negative electrospray ionization (ESI) mode. The temperature of the nebulizer gas is 350° C. and its flow rate is 8 L/minute. The pressure of the nebulizer gas is brought to 2700 hPa. In particular, the MRM (“Multiple Reaction Monitoring”) transitions m/z 525.1→250.1 and m/z 525.1→181, corresponding to the bromadiolone signal, are detected.
About 0.525 g (±0.025 g) of rat liver is weighed out accurately and placed in a 50 mL polypropylene tube. 10 mL of acetone are added and the suspension is homogenized using an Ultra-Turrax® homogenizer/disperser for a time of about 30 seconds. The homogenizer/disperser shaft is rinsed with hot water and then twice with 20 mL of acetone in a polypropylene tube. The homogenate is centrifuged for 5 minutes at a centrifugation speed of 3000 rpm (revolutions per minute). The supernatant is collected and transferred into a test tube. The sample is subjected to evaporation under a stream of nitrogen (N2) at a temperature of 40° C. so as to form a dry extract.
1 mL of acetonitrile is added to the tube containing the dry extract so as to dissolve it. The acetonitrile solution is washed twice successively with 1 mL of hexane. The lipid-free extract is dried under a stream of nitrogen (N2) at a temperature of 40° C. and is then taken up in 0.5 mL of methanol and dissolved by vortex stirring. 0.5 mL of ultra-pure (Milli-Q) water is then added. The sample is vortex-homogenized.
1 mL of dichloromethane (CH2Cl2), then 1 mL of methanol (CH3OH), then 1 mL of ultra-pure (Milli-Q) water are passed through an Oasis HLB 1 cc cartridge (WAT094225, Waters). The lipid-free liver extract (1 mL MeOH/Milli-Q H2O) containing bromadiolone is then loaded onto the top of the preconditioned cartridge. The liver extract penetrates through the cartridge by gravity on contact with the solid phase of the cartridge. 1 mL of washing solution formed from methanol (CH3OH) and ultra-pure water (H2O) in a 90/10 volume proportion is loaded onto the top of the cartridge. The cartridge is dried by suction under vacuum connected to the bottom of the cartridge. 1 mL of eluting solution formed from dichloromethane (CH2Cl2) and methanol (CH3OH) in a 90/10 volume proportion is then loaded onto the top of the cartridge and an eluate comprising bromadiolone is collected at the bottom of the cartridge. The solvent of the eluate is evaporated off under a stream of nitrogen (N2) at a temperature of 40° C. The sample is taken up in 0.5 mL of acetonitrile and the acetonitrile solution containing bromadiolone is filtered through a 0.2 μm filter. […]

[2] = tested on: male laboratory rats (OFA, Sprague-Dawley 200 g); test: Anticoagulant power of each configurational stereoisomer of bromadiolone (coagulation time, Quick time, of plasma of tube-fed rats); format: in vivo, rat; conditions: for anticoagulant effect (coagulation time, Quick time): 1.5 mg of enantiomer per kg rat by tube feeding on D0, up to D3, FIG. 4
Procedure: The following are administered to male laboratory rats (OFA, Sprague-Dawley 200 g) by tube feeding on D0: a composition comprising enantiomer E1 of said diastereoisomer D12 in a proportion of 1.5 mg of said enantiomer E1 per kilogram of rat; or a composition comprising enantiomer E2 of said diastereoisomer D1,2 in a proportion of 1.5 mg of said enantiomer E2 per kilogram of rat; or a composition comprising enantiomer E3 of said diastereoisomer D3,4 in a proportion of 1.5 mg of said enantiomer E3 per kilogram of rat; or a composition comprising enantiomer E4 of said diastereoisomer D3,4 in a proportion of 1.5 mg of said enantiomer E4 per kilogram of rat.
The rats receive vitamin K1 daily in a proportion of 0.1 unit of vitamin per 200 g of rat so as to keep them alive for 7 days or 14 days. However, the administration of vitamin K1 is stopped 48 hours before the rats are euthanized so as to allow evaluation of the Quick time without interference with the supplementation by tube feeding.
On these rats, blood is collected on D1, D3, D7 and D14 and measurement of the coagulation time (Quick time, expressed in seconds) of the plasma is performed using the “Neoplastine CI Determination of Prothrombin Time” kit (Diagnostica Stago, Asnière, France) by measurement on a Thrombotimer Option 2 Plus machine (Behnk Electronik, Norderstedt, Germany).

[3] = summary statement of the inventors

O=c1oc2ccccc2c(O)c1C(CC(O)c1ccc(-c2ccc(Br)cc2)cc1)c1ccccc1 (single isomer, unassigned) [enantiomer E3, 3-[3-(4′-bromo[1,1′-biphenyl]-4-yl)-3-hydroxy-1-phenylpropyl]-4-hydroxy-2H-1-benzopyran-2-one]
concentration of each enantiomer in rat liver ([1]; listed as E3): only enantiomer E1 remains in the rat liver
anticoagulant effect (coagulation time, Quick time) ([2]; listed as E3): contrary to the ingestion of 1.5 mg of said enantiomer E3

O=c1oc2ccccc2c(O)c1C(CC(O)c1ccc(-c2ccc(Br)cc2)cc1)c1ccccc1 (single isomer, unassigned) [enantiomer E2, 3-[3-(4′-bromo[1,1′-biphenyl]-4-yl)-3-hydroxy-1-phenylpropyl]-4-hydroxy-2H-1-benzopyran-2-one]
concentration of each enantiomer in rat liver ([1]; listed as E2): only enantiomer E1 remains in the rat liver

O=c1oc2ccccc2c(O)c1C(CC(O)c1ccc(-c2ccc(Br)cc2)cc1)c1ccccc1 (single isomer, unassigned) [enantiomer E4, 3-[3-(4′-bromo[1,1′-biphenyl]-4-yl)-3-hydroxy-1-phenylpropyl]-4-hydroxy-2H-1-benzopyran-2-one]
concentration of each enantiomer in rat liver ([1]; listed as E4): only enantiomer E1 remains in the rat liver
persistence in the liver of target rodent pests [1, 3]: sufficient to be rodenticidal
anticoagulant effect (coagulation time, Quick time) ([2]; listed as E4): sufficient to maintain an anticoagulant effect at least up to D3
anticoagulant activity compared with enantiomer E3 [2, 3]: higher anticoagulant activity than the anticoagulant activity of said enantiomer E3

O=c1oc2ccccc2c(O)c1C(CC(O)c1ccc(-c2ccc(Br)cc2)cc1)c1ccccc1 (single isomer, unassigned) [enantiomer E1, 3-[3-(4′-bromo[1,1′-biphenyl]-4-yl)-3-hydroxy-1-phenylpropyl]-4-hydroxy-2H-1-benzopyran-2-one]
concentration of each enantiomer in rat liver ([1]; listed as E1): remains in the rat liver
